Consider two compounds from US6503912B1, “Substituted guanidine derivatives” (Bayer Aktiengesellschaft, priority 1998, dated 2003).

Data set [1] is described as follows: logP determination by HPLC (EEC directive 79/831 Annex V. A8). The settings on record: HPLC gradient method, acetonitrile/0.1% aqueous phosphoric acid.
Method: [logP=The logP values were determined in accordance with EEC directive 79/831 Annex V. A8 by HPLC (gradient method, acetonitrile/0.1% aqueous phosphoric acid]
In data set [2] the test system is Mosquito larvae (Aedes aegypti). In words: Aedes Test. It is filed as in vivo. The note with it: active compound concentration 0.0016%; after 4 hours. On the procedure: Solvent: 1000 parts by weight of methanol
To produce a suitable preparation of active compound, 1 part by weight of active compound is mixed with the stated amount of solvent, and the concentrate is diluted with water to the desired concentrations.
Mosquito larvae (Aedes aegypti) are placed into the preparation of active compound of the desired concentration.
After the desired period of time, the effect on the larvae is determined.

In data set [3] the test system is black bean aphid (Aphis fabae). In words: Aphis Test (Systemic Action). It is filed as in vivo. The note with it: active compound concentration 0.01%, watering of Vicia faba, after 4 days. On the procedure:
Aphis Test (Systemic Action)
(§1) Solvent: 7 parts by weight of dimethylformamide
(§2) Emulsifier: 1 part by weight of alkylaryl polyglycol ether
(§3) To produce a suitable preparation of active compound, 1 part by weight of active compound is mixed with the stated amount of solvent, and the stated amount of emulsifier, and the concentrate is diluted with water to the desired concentration.
Bean plants (Vicia faba) which are heavily infested by the black bean aphid (Aphis fabae) are watered with in each case 20 ml of the preparation of active compound of the desired concentration so that the preparation of active compound penetrates into the soil without wetting the shoot. The active compound is taken up by the roots and passed on to the shoot.
After the desired period of time, the kill in % is determined. 100% means that all aphids have been killed; 0% means that none of the aphids has been killed.

Data set [4] has as its system eggs of the onion fly (Hylemyia antiqua). Kind of data set: Hylemyia Test. The note with it: active compound concentration 0.05%; artificial feed; after 7 days. It is filed as in vivo. On the procedure:
(§4) Solvent: 100 parts by weight of acetone
(§5) 1900 parts by weight of methanol
(§6) To produce a suitable preparation of active compound, 1 part by weight of active compound is mixed with the stated amount of solvent, and the concentrate is diluted with methanol to the desired concentration.
A stated amount of the preparation of active compound of the desired concentration is pipetted onto a standardized quantity of artificial feed. After the methanol has evaporated, about 20 eggs of the onion fly (Hylemyia antiqua) are placed on the feed.
After the desired period of time, the kill of the eggs or larvae in % is determined. 100% means that all animals have been killed; 0% means that none of the animals has been killed.

In data set [5] the test system is larvae of the green rice leaf-hopper (Nephotettix cincticeps). Kind of data set: Nephotettix Test. The class given is in vivo. The settings on record: active compound concentration 0.1%; dipped rice seedlings; after 6 days. On the procedure: as §1, §2, §3
Rice seedlings (Oryza sativa) are treated by being dipped into the preparation of active compound of the desired concentration and are populated with larvae of the green rice leaf-hopper (Nephotettix cincticeps) while the seedlings are still moist.
After the desired period of time, the kill in % is determined. 100% means that all leaf-hoppers have been killed; 0% means that none of the leaf-hoppers has been killed.

Data set [6] relates to mustard beetle larvae (Phaedon cochleariae). In words: Phaedon larvae Test. It is filed as in vivo. The settings on record: active compound concentration 0.1%; dipped cabbage leaves; after 7 days. On the procedure: as §1, §2
To produce a suitable preparation of active compound, 1 part by weight of active compound is mixed with the stated amount of solvent and the stated amount of emulsifier, and the concentrate is diluted with water to the desired concentration.
Cabbage leaves (Brassica oleracea) are treated by being dipped into the preparation of active compound of the desired concentration and are populated with mustard beetle larvae (Phaedon cochleariae) whilst the leaves are still moist.
After the desired period of time, the kill in % is determined. 100% means that all beetle larvae have been killed; 0% means that none of the beetle larvae has been killed.

Data set [7] deals with larva (L2-L3) of the army worm (Spodoptera frugiperda). Kind of data set: Spodoptera Frugiperda Test/artificial Feed. It is filed as in vivo. The note with it: active compound concentration 0.05%; artificial feed; after 7 days. The procedure:
Spodoptera Frugiperda Test/arfificial Feed
as §4, §5, §6
A stated amount of the preparation of active compound of the desired concentration is pipetted onto a standardized quantity of artificial feed. After the methanol has evaporated, in each case one larva (L2-L3) of the army worm (Spodoptera frugiperda) is placed onto the feed, in 3 repetitions.
After the desired period of time, the kill in % is determined. 100% means that all animals have been killed; 0% means that none of the animals has been killed.

The subject of a further data set is Aphis fabae. Kind of data set: Critical Concentration Test/root-systemic Action. The class given is in vivo. The settings on record: 20 ppm in soil; broad beans; leaves populated after 7 days, evaluation after a further 6 days. The procedure: Critical Concentration Test/root-systemic Action
Solvent: 4 parts by weight of acetone
as §2
To produce a suitable preparation of active compound, 1 part by weight of active compound is mixed with the stated amount of solvent, the stated amount of emulsifier is added and the concentrate is diluted with water to the desired concentration.
The preparation of active compound is mixed intimately with soil. The concentration of the active compound in the preparation is virtually immaterial, only the amount by weight of active compound per volume unit of soil, which is stated in ppm (=mg/l), matters. The treated soil is filled into pots which are planted with pregerminated broad beans. Thus, the active compound can be taken up from the soil by the plant roots and transported into the leaves.
After a further 6 days, evaluation is carried out by counting or estimating the dead animals. The root-systemic action of the active compound is deduced from the number of animals killed. It is 100% when all test animals have been killed and 0% when the number of live test insects is identical to that of the untreated control.

With `O=C(OCN1CCN(Cc2ccc(Cl)nc2)C1=N[N+](=O)[O-])C1CC1` [Example 59], the “logP (pH = 2.3)” value in data set [1] was found to be 1.57.

Take `CCOCN1CCN(Cc2ccc(Cl)nc2)C1=N[N+](=O)[O-]` [Example 4]: the kill in data set [2], in data set [3], in data set [5], in data set [6] and in data set [7] was 100% throughout. For the same compound, the “kill of the eggs or larvae” value in data set [4] was determined as 100%. For the same compound, in the data set with Aphis fabae, the “kill (root-systemic action)” value is on record as 100%.
